Measured values reported in PubChem BioAssay AID652227 (The Scripps Research Institute Molecular Screening Center, 2013).

Each molecule was assayed against Serine/threonine-protein phosphatase PP1-alpha catalytic subunit (Homo sapiens) (UniProt P62136) (assay: PP1 inhibition of glycogen phosphorylase dephosphorylation, late-stage follow-up, orthogonal assay for PP1 inhibitor probe project, biochemical, radiolabel, dose response, powder samples, set 2 (AID 652227)). Conditions: purified PP1alpha, 32P/33P-phosphorylase dephosphorylation, scintillation.
Serine/threonine-protein phosphatase PP1-alpha catalytic subunit (Homo sapiens), sequence (P62136 whole entry, looked up): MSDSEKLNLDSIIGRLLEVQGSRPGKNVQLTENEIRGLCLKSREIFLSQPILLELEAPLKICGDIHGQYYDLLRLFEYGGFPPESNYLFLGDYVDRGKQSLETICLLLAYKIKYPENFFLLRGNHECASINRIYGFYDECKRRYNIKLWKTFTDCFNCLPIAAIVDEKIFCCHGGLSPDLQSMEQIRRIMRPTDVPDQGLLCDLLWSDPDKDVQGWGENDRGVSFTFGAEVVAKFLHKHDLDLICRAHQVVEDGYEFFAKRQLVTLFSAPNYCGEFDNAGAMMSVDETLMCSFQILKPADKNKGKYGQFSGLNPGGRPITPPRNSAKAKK

**Q.** With `CCOC(=O)c1sc2nc3c(SCC(=O)O)cc(C(=O)c4cc(F)ccc4O)cn3c(=O)c2c1C` as the molecule, how does the IC50 read?
**A.** 8.54 µM

**Q.** How did the IC50 turn out when `COc1ccc(NC(=O)C2C3CCC(O3)C2C(=O)O)c(OC)c1` (stereo not given) was run?
**A.** 18.9 µM

**Q.** How did the IC50 turn out when `CN1CCN(C(c2ccccn2)c2cc(Cl)c3cccnc3c2O)CC1` (stereo not given) was run?
**A.** 4.89 µM

**Q.** `N#Cc1c(-c2ccc(Cl)cc2)cc(-c2cccs2)nc1SCC(=O)O` was tested. Which IC50 did it give?
**A.** 21.9 µM

**Q.** `CCn1c2ccccc2c2cc(NC(=O)COC(=O)c3ccc(NC(=O)CC#N)cc3)ccc21` was tested. Which IC50 did it give?
**A.** 38 µM
